Experimental data reported in patent US20110081316A1, “PYRAZOLE INHIBITORS OF PHOSPHATIDYLINOSITOL 3-KINASE” (VERTEX PHARMACEUTICALS INCORPORATED, priority 2009, published 2011).

biological target: PI3K-gamma (Homo sapiens, UniProt P48736); test: PI3K Inhibition Assay (33P-ATP, PI(4,5)P2 substrate, filter plate scintillation counting); format: biochemical; conditions: 2 nM enzyme, 3 μM ATP, 30 μM PI(4,5)P2, 30 min at 25° C.; competitive tight binding Ki fit
Procedure: Using a Biomek FX from Beckman Coulter, 1.5 μL of each of ten 2.5-fold serial dilutions of a compound of the invention in 100% DMSO was added to an individual well (hereafter, “test well”) in a 96 well polystyrene plate [Corning, Costar Item No. 3697]. One test well also contained 1.5 μL of DMSO with no compound. […] Using a Titertek Multidrop, 50 μL of Reaction Mix [100 mM HEPES pH 7.5, 50 mM NaCl, 10 mM DTT, 0.2 mg/mL BSA, 60 μM phosphatidylinositol(4,5)bisphosphate diC16 (PI(4,5)P2; Avanti Polar Lipids, Cat. No. 840046P) and PI3K isoform of interest (see Table 3 for isoform concentrations)] was added to each well. To initiate the reaction, 50 μL of ATP Mix [20 mM MgCl2, 6 μM ATP (100 μCi/μmmole ^33P-ATP)] was added each well, followed by incubating the wells for 30 min. at 25° C. Final concentrations in each well were 50 mM HEPES 7.5, 10 mM MgCl2, 25 mM NaCl, 5 mM DTT, 0.1 mg/mL BSA, 30 μM PI(4,5)P2, 3 μM ATP, and the PI3K isoform of interest (see Table 3). Final compound concentrations in each well ranged from 10 μM to 1 nM. [table] After incubation, the reactions in each well were quenched by addition of 50 μL of stop solution [30% TCA/Water, 10 mM ATP]. Each quenched reaction mixture was then transferred to a 96 well glass fiber filter plate [Corning, Costar Item No. 3511]. The plate was vacuum-filtered and washed three times with 150 μL of 5% TCA/water in a modified Bio-Tek Instruments ELX-405 Auto Plate Washer. 50 μL of scintillation fluid was added to each well and the plate read on a Perkin-Elmer TopCount™ NXT liquid scintillation counter to obtain ^33P-counts representing inhibition values. The value for the background well was subtracted from the value obtained for each test well and the data were fit to the competitive tight binding Ki equation described by Morrison and Stone, Comments Mol. Cell. Biophys. 2: 347-368, 1985.

Chain of PI3K-gamma (P48736 whole entry, species assumed, canonical isoform): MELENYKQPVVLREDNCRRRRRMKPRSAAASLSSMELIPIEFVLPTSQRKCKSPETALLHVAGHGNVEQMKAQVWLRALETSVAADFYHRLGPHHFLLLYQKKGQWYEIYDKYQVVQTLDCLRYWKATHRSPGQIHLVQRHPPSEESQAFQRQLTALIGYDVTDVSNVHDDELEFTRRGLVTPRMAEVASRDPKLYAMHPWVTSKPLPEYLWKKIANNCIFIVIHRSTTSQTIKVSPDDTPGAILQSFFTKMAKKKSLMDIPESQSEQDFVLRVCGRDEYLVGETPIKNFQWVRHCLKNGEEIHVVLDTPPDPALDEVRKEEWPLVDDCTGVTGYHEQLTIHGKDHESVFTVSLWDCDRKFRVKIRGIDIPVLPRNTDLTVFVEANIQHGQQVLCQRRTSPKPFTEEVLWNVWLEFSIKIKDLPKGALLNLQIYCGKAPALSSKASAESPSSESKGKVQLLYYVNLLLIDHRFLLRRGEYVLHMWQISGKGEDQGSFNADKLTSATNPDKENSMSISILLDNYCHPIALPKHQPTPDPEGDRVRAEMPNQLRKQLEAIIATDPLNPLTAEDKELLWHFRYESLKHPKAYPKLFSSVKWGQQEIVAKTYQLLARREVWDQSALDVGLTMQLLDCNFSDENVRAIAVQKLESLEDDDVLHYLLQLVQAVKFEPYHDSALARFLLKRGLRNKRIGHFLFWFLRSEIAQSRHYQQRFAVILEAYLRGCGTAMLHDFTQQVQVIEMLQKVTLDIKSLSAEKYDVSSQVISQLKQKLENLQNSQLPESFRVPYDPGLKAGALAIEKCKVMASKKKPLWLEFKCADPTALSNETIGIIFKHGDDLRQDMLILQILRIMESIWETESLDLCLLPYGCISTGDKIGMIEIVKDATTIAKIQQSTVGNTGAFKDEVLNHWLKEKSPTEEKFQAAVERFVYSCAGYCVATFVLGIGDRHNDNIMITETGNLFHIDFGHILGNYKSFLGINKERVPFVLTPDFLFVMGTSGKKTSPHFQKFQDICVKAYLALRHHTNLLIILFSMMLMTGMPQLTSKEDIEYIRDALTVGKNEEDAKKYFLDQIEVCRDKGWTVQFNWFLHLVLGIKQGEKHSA

Compound | Ki [nM]
Cn1nc(NC(=O)NCCOCC2CC2)cc1C#Cc1cccnc1Cl [Compound 8] | < 100
Cn1nc(NC(=O)NCCc2cn(CC(F)F)cn2)cc1C#Cc1cccnc1 [Compound 3] | < 100
Cn1nc(NC(=O)NCCOCC2CC2)cc1C#Cc1ccc2nccnc2c1 [Compound 9] | < 100
COc1cc(C#Cc2cc(NC(=O)NC[C@@H](C)OCC3CC3)nn2C)cnc1OC [Compound 11] | < 100
Cn1nc(NC(=O)NCCOCC2CC2)cc1C#Cc1ccc(N)nc1 [Compound 7] | < 100

Next, values leading:

Ki [nM] | Compound
< 100 | COc1cc(C#Cc2cc(NC(=O)NC[C@H](C)OCC3CC3)nn2C)cnc1OC [Compound 14]
< 100 | C[C@@H](CNC(=O)Nc1cc(C#Cc2ccc3nccnc3c2)n(C)n1)OCC1CC1 [Compound 12]
< 100 | COc1cncc(C#Cc2cc(NC(=O)NCCOCC3CC3)nn2C)c1 [Compound 6]
